Reference: publication PMC9051106, “Structural insights into TRPV2 activation by small molecules” (Nature Communications, 2022)
Values joined by “and” are separate entries in the source; they are usually repeats but may differ in a detail not shown here. Identical values can stand only once.

Key:
[1] = biological target: His521Ala/Arg539Lys rat TRPV2 (Rattus norvegicus, UniProt Q9WUD2, H521A/R539K)
Experimental: (§1) Nanofectin (PAA, Pasching, Austria) was used to transfect HEK293T cells with WT rat TRPV2, Arg535Lys rat TRPV2, Arg539Lys rat TRPV2, His521Ala rat TRPV2, His521Asn rat TRPV2, His521Ala/Arg539Lys rat TRPV2, Thr522Ala rat TRPV2 and Tyr525Ala rat TRPV2. Mutants were generated according to the instructions of the manufacturer by site directed mutagenesis with the quick-change lightning site-directed mutagenesis kit (Aglient, Waldbronn, Germany). […] Cells were cultured at 37 °C with 5% CO2 in Dulbecco’s modified Eagle medium nutrient mixture F12 (DMEM/F12 Gibco/Invitrogen, Darmstadt, Germany) and supplemented with 10% fetal bovine serum, (Biochrom, Berlin, Germany).
(§2) Whole-cell voltage clamp was performed with an EPC10 USB HEKA amplifier (HEKA Electronik, Lamprecht, Germany), much as previously described. Signals were low passed at 1 kHz and sampled at 2–10 kHz. Patch pipettes were pulled from borosilicate glass tubes (TW150F-3; World Precision Instruments, Berlin, Germany) to give a resistance of about 3 MΩ. Cells were held at −60 mV and all recordings were performed at room temperature. The external solution contained: 140 mM NaCl, 5 mM KCl, 2 mM MgCl2, 5 mM EGTA, 10 mM glucose, and 10 mM HEPES, pH 7.4 (adjusted with NaOH). Calcium was omitted in order to avoid desensitization. The standard pipette solution contained: 140 mM KCl, 2 mM MgCl2, 5 mM EGTA and 10 mM HEPES, pH 7.4 (adjusted with KOH). A gravity-driven glass multi-barrel perfusion system was used to bath apply solutions. Data acquisition and off-line analyses required Patchmaster/Fitmaster software (HEKA Electronik, Lamprecht, Germany) and Origin 8.5.1 (Origin Lab, Northampton, MA, USA).

[2] = biological target: Arg539Lys rat TRPV2 (Rattus norvegicus, UniProt Q9WUD2, R539K)
Experimental: as §1, §2

[3] = biological target: T1, wildtype rat TRPV2 (Rattus norvegicus, UniProt Q9WUD2)
T1 sequence (Q9WUD2 1-761): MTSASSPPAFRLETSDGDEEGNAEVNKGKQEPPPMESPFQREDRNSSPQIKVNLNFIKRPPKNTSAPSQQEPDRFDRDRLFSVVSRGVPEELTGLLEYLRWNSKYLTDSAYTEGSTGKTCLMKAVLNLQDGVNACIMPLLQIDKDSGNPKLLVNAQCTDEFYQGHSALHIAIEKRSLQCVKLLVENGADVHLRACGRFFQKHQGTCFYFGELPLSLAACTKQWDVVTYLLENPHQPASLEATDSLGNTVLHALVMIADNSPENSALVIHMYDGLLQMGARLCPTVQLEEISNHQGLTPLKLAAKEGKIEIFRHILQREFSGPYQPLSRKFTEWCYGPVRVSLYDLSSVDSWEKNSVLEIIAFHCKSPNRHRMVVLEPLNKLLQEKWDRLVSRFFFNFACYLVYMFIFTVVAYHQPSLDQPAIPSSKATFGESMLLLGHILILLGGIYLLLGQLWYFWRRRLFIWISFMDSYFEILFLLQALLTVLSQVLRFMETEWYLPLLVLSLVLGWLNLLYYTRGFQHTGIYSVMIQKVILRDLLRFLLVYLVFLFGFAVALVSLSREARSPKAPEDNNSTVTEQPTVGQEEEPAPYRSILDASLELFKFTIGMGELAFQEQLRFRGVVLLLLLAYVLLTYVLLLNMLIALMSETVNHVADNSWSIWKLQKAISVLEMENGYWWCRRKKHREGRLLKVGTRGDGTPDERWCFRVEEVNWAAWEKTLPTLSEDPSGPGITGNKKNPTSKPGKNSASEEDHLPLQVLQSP
Experimental: as §1, §2

[4] = biological target: His521Asn rat TRPV2 (Rattus norvegicus, UniProt Q9WUD2, H521N)
Experimental: as §1, §2

[5] = biological target: Thr522Ala rat TRPV2 (Rattus norvegicus, UniProt Q9WUD2, T522A)
Experimental: as §1, §2

[6] = biological target: Arg535Lys rat TRPV2 (Rattus norvegicus, UniProt Q9WUD2, R535K)
Experimental: as §1, §2

[7] = biological target: Tyr525Ala rat TRPV2 (Rattus norvegicus, UniProt Q9WUD2, Y525A); settings: with either 2-APB or heat
Experimental: as §1, §2

[8] = biological target: His521Ala rat TRPV2 (Rattus norvegicus, UniProt Q9WUD2, H521A)
Experimental: as §1, §2

[9] = biological target: T1, wildtype rat TRPV2; assay: Whole-cell patch recordings, current density with 2-APB alone and 2-APB co-applied with CBD; format: cell-based; parameters: expressed in transfected cells; host or cells: HEK293T; settings: for current density: Mean ± SEM, N = 7
Experimental: as §1, §2

[10] = HEK293T, held at −60 mV, mean ± S.E.M.

His521Ala/Arg539Lys rat TRPV2, sequence (Q9WUD2 whole entry H521A/R539K): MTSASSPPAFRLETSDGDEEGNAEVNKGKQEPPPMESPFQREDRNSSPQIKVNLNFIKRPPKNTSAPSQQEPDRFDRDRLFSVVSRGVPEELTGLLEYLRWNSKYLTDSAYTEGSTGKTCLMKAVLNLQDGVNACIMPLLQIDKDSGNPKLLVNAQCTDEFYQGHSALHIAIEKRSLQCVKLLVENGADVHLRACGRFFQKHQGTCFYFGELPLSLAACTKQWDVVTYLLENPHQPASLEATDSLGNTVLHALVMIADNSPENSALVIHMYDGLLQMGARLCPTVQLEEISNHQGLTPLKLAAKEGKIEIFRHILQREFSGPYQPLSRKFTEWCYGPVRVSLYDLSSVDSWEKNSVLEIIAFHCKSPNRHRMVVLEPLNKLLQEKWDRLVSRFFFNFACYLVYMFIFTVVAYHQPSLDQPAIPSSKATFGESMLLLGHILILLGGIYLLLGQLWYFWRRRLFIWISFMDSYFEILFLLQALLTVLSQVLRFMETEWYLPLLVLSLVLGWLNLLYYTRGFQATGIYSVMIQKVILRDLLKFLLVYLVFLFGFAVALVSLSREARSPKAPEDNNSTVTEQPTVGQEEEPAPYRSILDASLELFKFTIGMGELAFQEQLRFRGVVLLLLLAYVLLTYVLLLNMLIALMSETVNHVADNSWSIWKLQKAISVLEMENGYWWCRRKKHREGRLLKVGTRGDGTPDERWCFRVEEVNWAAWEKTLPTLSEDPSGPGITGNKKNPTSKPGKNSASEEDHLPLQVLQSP
Arg539Lys rat TRPV2, sequence (Q9WUD2 whole entry R539K): as the sequence (Q9WUD2 whole entry H521A/R539K) above, with A521H counted along it
His521Asn rat TRPV2, sequence (Q9WUD2 whole entry H521N): as the sequence (Q9WUD2 whole entry H521A/R539K) above, with A521N, K539R counted along it
His521Ala rat TRPV2, sequence (Q9WUD2 whole entry H521A): as the sequence (Q9WUD2 whole entry H521A/R539K) above, with K539R counted along it
Thr522Ala rat TRPV2, sequence (Q9WUD2 whole entry T522A): as the sequence (Q9WUD2 whole entry H521A/R539K) above, with A521H, T522A, K539R counted along it
Arg535Lys rat TRPV2, sequence (Q9WUD2 whole entry R535K): as the sequence (Q9WUD2 whole entry H521A/R539K) above, with A521H, R535K, K539R counted along it
Tyr525Ala rat TRPV2, sequence (Q9WUD2 whole entry Y525A): as the sequence (Q9WUD2 whole entry H521A/R539K) above, with A521H, Y525A, K539R counted along it

Hill coefficient ([1]; His521Ala/Arg539Lys): 5.2 ± 0.6
EC50 ([1]; His521Ala/Arg539Lys, HEK293T, held at −60 mV, mean ± S.E.M.): 1750 ± 125 µM
decrease in 2-APB sensitivity ([1]; double mutant compared to the wildtype TRPV2): fivefold
Hill coefficient ([2]; Arg539Lys): 5.6 ± 1.1
EC50 ([2]; Arg539Lys, HEK293T, held at −60 mV, mean ± S.E.M.): 683 ± 78 µM
Current (minus Leak) ([2]; rTRPV2 - R539K, 2-APB 50µM, single cell): 6.3 and 7.05 and 6.6
Hill coefficient ([3]; wildtype): 3.0 ± 0.2
EC50 ([3]; wildtype rat TRPV2, HEK293T, held at −60 mV, mean ± S.E.M.): 322 ± 27 µM
Hill coefficient [4]: 4.3 ± 0.3
EC50 ([4]; HEK293T, held at −60 mV): 742 ± 14 µM
Hill coefficient [5]: 3.0 ± 0.3
EC50 [5, 10]: 232 ± 43 µM
Hill coefficient [6]: 3.3 ± 0.5
EC50 [6, 10]: 79 ± 11 µM
membrane currents evoked [7]: could not evoke any membrane currents
Hill coefficient [8]: 3.3 ± 0.3
EC50 [8, 10]: 991 ± 131 µM
current density ([9]; 2-APB alone 10 μM): 0.98 ± 0.1 pA/pF
current density ([9]; 2-APB alone 30 μM): 2.8 ± 0.3 pA/pF
current density ([9]; 2-APB alone 100 μM): 24.9 ± 3.7 pA/pF
Compound: NCCOB(c1ccccc1)c1ccccc1 [2-APB, 2-aminoethoxydiphenyl borate]
current ([9]; 2-APB alone 10 µM, single cell): 12.35 and 14.18 and 12.95 and 20 and 11.76 and 11.18
